Data taken from PMC10212518 (Biochemical Journal, 2023).

Tests used:
wild-type MDF cells = experiment: FACS cell death assay (PI uptake by flow cytometry) after necroptotic stimulus; assay type: cell-based, mouse; settings: for inhibition of TSQ-induced necroptosis (PI uptake, flow cytometry): TSQ 24 h, control comparison at concentrations >1 µM; for inhibition of TSZ-induced necroptosis (PI uptake, flow cytometry): TSZ 24 h
Protocol: In the first protocol, WT MDF cells were seeded at 1.0 × 10^5 cells per well in 24-well plates and allowed to settle for 4 h at 37°C 10% CO2. […] After 24 h, cells were harvested, stained with 1 µg/ml propidium iodide (PI; Sigma–Aldrich) and PI positive cells were quantified by flow cytometry on a BD FACSCalibur instrument. In the second protocol, WT MDF cells were seeded at 5.0 × 10^4 cells in 500 µl per well in 24-well plates (Falcon, cat #353047) and allowed to settle for 24 h at 37°C 10% CO2. […] For all compounds and reagents, 0.5 µl of 1000× stocks were used. Cells were harvested, stained with 2 µg/ml propidium iodide (PI; Sigma–Aldrich) and PI positive cells were quantified by flow cytometry on a BD FACSCalibur instrument.

[1] = target: T1, endogenous mouse RIPK3 in MDF cells (Mus musculus, UniProt Q9QZL0); experiment: Cellular Thermal Shift Assay (CETSA); assay type: binding; settings: 20 µM
T1 construct: endogenous in cells; host or cells: wild-type mouse dermal fibroblasts (MDF)
T1 sequence (Q9QZL0 whole entry): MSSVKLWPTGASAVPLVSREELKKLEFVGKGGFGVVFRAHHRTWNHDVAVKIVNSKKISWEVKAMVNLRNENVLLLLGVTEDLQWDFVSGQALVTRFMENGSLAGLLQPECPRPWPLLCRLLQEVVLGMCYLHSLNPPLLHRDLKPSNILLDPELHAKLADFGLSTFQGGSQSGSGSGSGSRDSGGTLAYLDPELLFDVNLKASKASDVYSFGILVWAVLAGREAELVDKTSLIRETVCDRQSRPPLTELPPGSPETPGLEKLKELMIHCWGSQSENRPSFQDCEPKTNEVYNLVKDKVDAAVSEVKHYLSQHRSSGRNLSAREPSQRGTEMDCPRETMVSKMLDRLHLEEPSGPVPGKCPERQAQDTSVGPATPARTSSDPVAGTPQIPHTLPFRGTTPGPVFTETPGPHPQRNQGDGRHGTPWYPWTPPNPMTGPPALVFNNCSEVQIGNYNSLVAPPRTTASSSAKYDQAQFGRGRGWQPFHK
Protocol: (§1) CETSA was performed as previously described. Briefly, Mlkl^−/− MDF cells were treated with doxycycline (20 ng/ml) for 4 h to induce expression of the MLKL Q343A mutant and then seeded to obtain 1.5 × 10^6 cells per temperature point. WT MDF or U937 cells were seeded to obtain 1.5 × 10^6 cells per temperature point. Cells were treated with DMSO or compounds (20 µM), as specified, for 1 h at 37°C 10% CO2. Cells were spun down, washed with 5 ml DPBS (Gibco), resuspended in DPBS containing cOmplete EDTA-free Protease Inhibitor Cocktail (Roche) and aliquoted into 100 µl samples per temperature point in PCR tubes. Live cell suspensions were heated across a temperature gradient (below) for 3 min in a T100 Thermal Cycler (Bio-Rad), cooled at room temperature for 3 min, snap frozen in liquid N2 and stored at −80°C overnight.
(§2) Samples were freeze-thawed once to lyse the cells. Soluble protein was separated from precipitated protein via centrifugation at 17 000×g for 30 min at 4°C. Soluble protein fractions were resolved by SDS–PAGE and analysed by Western blot. Briefly, 10 µl of each soluble protein sample was added to 10 µl of NuPAGE LDS Sample Buffer (Invitrogen) containing TCEP (Sigma–Aldrich). Samples were heated at 95°C for 10 min and then 15 µl of each sample was run on a gel along with the Precision Plus Kaleidoscope Prestained Protein Standard (Bio-Rad), using either NuPAGE 4–12% Bis-Tris 1.0 mm × 20-well Midi Gels (Invitrogen) with NuPAGE MES SDS Running Buffer (Invitrogen), or 4–15% Criterion TGX Stain-Free 26 well 15 µl Protein Gels (Bio-Rad) with Tris/Glycine Buffer (Bio-Rad). Western blots were performed according to the Western Blotting General Procedure above.

[2] = system: RIPK3 phosphorylation in MDF cells; experiment: Cellular phosphorylation assay, Western blot of phospho-RIPK3; assay type: cell-based, mouse; settings: 10 µM, 2 h pre-treatment; TSI 2 h; wild-type MDF cells
Protocol: (§3) WT, Ripk1^−/−Mlkl^−/− and Ripk3^−/− MDF cell lines were seeded at 3.0 × 10^5 cells in 1 ml per well in 12-well plates (Corning, cat #3512) and allowed to settle for 24 h at 37°C 10% CO2. WT cells were treated with DMSO alone or compounds (1 µM or 10 µM), as specified, for 2 h. Ripk1^−/−Mlkl^−/− and Ripk3^−/− cells were left untreated. Cells were stimulated with TSI to induce phosphorylation of RIPK1 and RIPK3, or left unstimulated, for 2 h. For all compounds and reagents, 1 µl of 1000× stocks were used. Cells were harvested, washed with 500 µl DPBS (Gibco) and lysed in 25 µl of ice-cold RIPA buffer (25 mM Tris–HCl pH 7.5, 150 mM NaCl, 1% v/v Nonidet P-40, 1% w/v Na Deoxycholate, 0.1% w/v SDS) containing cOmplete EDTA-free Protease Inhibitor Cocktail (Roche), PhosSTOP Phosphatase Inhibitor Cocktail (Roche) and benzonase nuclease (Sigma–Aldrich) for 30 min on ice. Whole cell lysates were stored at −80°C until protein quantification, SDS–PAGE and Western blots were performed. Briefly, whole cell lysates were thawed on ice then quantified using the BCA Protein Assay with bicinchoninic acid solution (Sigma–Aldrich) and copper sulfate solution (Sigma–Aldrich). NuPAGE LDS Sample Buffer (Invitrogen) containing TCEP (Sigma–Aldrich) was added to the whole cell lysates to obtain 20 µg protein in 20 µl total volume per sample. Samples were heated at 95°C for 10 minutes and 20 µl of each sample was run on NuPAGE 4–12% Bis-Tris 1.0 mm × 12-well Mini Gels (Invitrogen) using NuPAGE MES SDS Running Buffer (Invitrogen) along with the Precision Plus Kaleidoscope Prestained Protein Standard (Bio-Rad). Western blots were performed according to the Western Blotting General Procedure above.

[3] = target: T2, endogenous mouse RIPK1 in MDF cells (Mus musculus, UniProt Q60855); experiment: Cellular Thermal Shift Assay (CETSA); assay type: binding; settings: 20 µM
T2 construct: endogenous in cells; host or cells: wild-type mouse dermal fibroblasts (MDF)
T2 sequence (Q60855 1-656): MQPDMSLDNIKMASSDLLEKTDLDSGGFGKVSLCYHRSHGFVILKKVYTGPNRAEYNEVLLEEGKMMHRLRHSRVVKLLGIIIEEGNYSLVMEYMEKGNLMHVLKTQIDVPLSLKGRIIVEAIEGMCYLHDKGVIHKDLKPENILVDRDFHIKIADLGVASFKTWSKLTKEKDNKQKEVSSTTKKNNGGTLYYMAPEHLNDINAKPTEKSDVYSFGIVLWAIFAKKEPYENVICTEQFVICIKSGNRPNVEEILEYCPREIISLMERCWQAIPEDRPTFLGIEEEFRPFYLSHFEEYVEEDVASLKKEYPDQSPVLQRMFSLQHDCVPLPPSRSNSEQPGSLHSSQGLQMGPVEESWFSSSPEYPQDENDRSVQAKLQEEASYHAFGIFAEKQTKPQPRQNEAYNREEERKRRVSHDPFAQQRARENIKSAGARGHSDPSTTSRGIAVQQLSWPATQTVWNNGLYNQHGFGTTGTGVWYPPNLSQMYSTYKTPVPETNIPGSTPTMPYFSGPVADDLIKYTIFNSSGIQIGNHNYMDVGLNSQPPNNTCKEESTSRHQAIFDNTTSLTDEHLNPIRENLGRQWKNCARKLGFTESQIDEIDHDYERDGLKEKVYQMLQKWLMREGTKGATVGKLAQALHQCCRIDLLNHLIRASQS
Protocol: as §1, §2

[4] = system: RIPK1 phosphorylation in MDF cells; experiment: Cellular phosphorylation assay, Western blot of phospho-RIPK1; assay type: cell-based, mouse; settings: 10 µM, 2 h pre-treatment; TSI 2 h; wild-type MDF cells
Protocol: as §3

Compound: Cc1cc(-c2cnc(N)c3c(-c4ccc5scnc5c4)csc23)n(C)n1 [GSK′843]
- inhibition of TSQ-induced necroptosis (PI uptake, flow cytometry) (wild-type MDF cells): protection was comparable
- inhibition of TSZ-induced necroptosis (PI uptake, flow cytometry) (wild-type MDF cells): more potent protection with the control inhibitors compared with ABT-869

Compound: CC(C)S(=O)(=O)c1ccc2nccc(Nc3ccc4scnc4c3)c2c1 [GSK′872]
- inhibition of TSQ-induced necroptosis (PI uptake, flow cytometry) (wild-type MDF cells): protection was comparable
- inhibition of TSZ-induced necroptosis (PI uptake, flow cytometry) (wild-type MDF cells): more potent protection with the control inhibitors compared with ABT-869
- effect on thermal stability of endogenous mouse RIPK3 (CETSA) [1]: had no effect on RIPK3 stability
- effect on RIPK3 phosphorylation (phospho-RIPK3 signal, Western blot) [2]: almost completely inhibited

Compound: CN1C(=O)NC(Cc2c[nH]c3c(Cl)cccc23)C1=O (centres unmarked) [Nec-1s]
- effect on thermal stability of endogenous mouse RIPK1 (CETSA) [3]: increased the thermal stability
- effect on RIPK1 phosphorylation (phospho-RIPK1 signal, Western blot) [4]: almost completely ablated RIPK1 phosphorylation
